Measured values reported in article PMC11167047 (Cell Death Discovery, 2024).

Experiments:
Experiment in all cases: kinome screen (33PanQinase)
Format in all cases: biochemical
[1] = target: T1, TLK1 (Homo sapiens, UniProt Q9UKI8)
T1 construct: purchased Reaction Biology Europe GmbH (formerly ProQinase)
T1 sequence (Q9UKI8 1-766): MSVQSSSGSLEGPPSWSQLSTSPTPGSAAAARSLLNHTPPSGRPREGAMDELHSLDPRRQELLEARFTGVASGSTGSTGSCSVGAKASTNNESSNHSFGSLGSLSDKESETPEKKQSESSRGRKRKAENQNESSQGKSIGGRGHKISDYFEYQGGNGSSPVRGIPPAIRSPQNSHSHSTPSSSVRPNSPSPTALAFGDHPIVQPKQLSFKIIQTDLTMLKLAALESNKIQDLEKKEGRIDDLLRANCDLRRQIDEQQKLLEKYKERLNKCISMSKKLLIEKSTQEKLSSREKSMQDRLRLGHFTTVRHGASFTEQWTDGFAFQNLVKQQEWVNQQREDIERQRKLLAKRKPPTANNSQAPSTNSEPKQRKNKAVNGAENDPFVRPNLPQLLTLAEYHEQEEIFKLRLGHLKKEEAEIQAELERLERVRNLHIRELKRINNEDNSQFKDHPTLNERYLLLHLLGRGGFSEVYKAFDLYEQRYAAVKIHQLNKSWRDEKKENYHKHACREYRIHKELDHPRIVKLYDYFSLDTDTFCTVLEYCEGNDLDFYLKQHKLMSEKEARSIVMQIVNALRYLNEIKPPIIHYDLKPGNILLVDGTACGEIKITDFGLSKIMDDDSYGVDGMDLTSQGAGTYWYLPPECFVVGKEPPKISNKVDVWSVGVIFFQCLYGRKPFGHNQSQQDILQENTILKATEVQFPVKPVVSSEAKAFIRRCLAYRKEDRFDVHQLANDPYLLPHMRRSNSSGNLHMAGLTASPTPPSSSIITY
Protocol: (§1) The Kinome Screening was performed by Reaction Biology Europe GmbH (http://reactionbiology.com; Freiburg i. Br., Germany).

[2] = target: T2, MKNK2 (Homo sapiens, UniProt Q9HBH9)
T2 construct: purchased Reaction Biology Europe GmbH (formerly ProQinase)
Protocol: as §1

[3] = target: T3, EPHA6 (Homo sapiens, UniProt Q9UF33)
T3 construct: purchased Reaction Biology Europe GmbH (formerly ProQinase)
T3 sequence (Q9UF33 23-1036): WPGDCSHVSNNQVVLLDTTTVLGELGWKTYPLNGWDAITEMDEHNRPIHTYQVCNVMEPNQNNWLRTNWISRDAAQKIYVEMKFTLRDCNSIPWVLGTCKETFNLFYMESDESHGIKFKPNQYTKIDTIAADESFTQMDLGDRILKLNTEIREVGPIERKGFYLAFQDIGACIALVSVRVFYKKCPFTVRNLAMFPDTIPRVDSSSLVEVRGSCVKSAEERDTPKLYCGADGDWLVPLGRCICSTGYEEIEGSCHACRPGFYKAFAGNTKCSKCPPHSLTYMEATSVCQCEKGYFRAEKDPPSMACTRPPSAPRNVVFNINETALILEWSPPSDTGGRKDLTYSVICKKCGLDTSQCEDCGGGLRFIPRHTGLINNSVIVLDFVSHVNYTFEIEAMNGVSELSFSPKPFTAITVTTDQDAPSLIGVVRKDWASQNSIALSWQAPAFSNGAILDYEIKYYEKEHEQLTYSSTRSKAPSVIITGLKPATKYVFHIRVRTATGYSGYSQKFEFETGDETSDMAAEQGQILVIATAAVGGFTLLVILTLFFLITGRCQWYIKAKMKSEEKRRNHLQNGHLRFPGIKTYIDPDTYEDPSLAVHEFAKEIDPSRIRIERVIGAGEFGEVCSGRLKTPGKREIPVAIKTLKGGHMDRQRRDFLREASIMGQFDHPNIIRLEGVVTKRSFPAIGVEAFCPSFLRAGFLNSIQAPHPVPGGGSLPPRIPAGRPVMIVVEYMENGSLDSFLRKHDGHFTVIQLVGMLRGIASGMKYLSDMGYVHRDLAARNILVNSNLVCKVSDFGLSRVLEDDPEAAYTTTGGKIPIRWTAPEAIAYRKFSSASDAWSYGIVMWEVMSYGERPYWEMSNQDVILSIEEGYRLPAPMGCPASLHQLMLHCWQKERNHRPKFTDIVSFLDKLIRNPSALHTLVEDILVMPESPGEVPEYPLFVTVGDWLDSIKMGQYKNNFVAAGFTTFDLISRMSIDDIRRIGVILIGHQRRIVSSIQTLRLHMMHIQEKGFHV
Protocol: as §1

[4] = target: T4, PIM3 (Homo sapiens, UniProt Q86V86)
T4 construct: purchased Reaction Biology Europe GmbH (formerly ProQinase)
Protocol: as §1

[5] = target: T5, RAF1 YDYD (Homo sapiens, UniProt P04049, Y340D/Y341D)
T5 construct: purchased Reaction Biology Europe GmbH (formerly ProQinase)
Protocol: as §1

[6] = target: T6, MST2 (Homo sapiens, UniProt Q13188)
T6 construct: purchased Reaction Biology Europe GmbH (formerly ProQinase)
T6 sequence (Q13188 1-491): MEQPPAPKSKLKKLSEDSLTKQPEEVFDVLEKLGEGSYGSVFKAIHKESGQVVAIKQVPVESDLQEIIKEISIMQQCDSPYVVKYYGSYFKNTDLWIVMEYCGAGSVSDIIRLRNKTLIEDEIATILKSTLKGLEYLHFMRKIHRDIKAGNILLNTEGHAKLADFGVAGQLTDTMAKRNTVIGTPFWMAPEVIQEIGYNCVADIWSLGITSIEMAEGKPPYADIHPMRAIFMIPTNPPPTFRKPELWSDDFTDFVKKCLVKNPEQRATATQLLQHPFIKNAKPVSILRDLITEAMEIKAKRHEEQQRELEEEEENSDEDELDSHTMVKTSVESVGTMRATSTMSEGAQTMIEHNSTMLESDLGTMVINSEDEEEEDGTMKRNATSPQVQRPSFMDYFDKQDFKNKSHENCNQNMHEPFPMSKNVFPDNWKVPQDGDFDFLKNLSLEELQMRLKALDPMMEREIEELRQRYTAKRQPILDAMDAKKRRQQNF
Protocol: as §1

[7] = target: T7, CDK9/CycT1 (Homo sapiens, UniProt P50750)
T7 construct: purchased Reaction Biology Europe GmbH (formerly ProQinase)
T7 sequence (P50750 whole entry): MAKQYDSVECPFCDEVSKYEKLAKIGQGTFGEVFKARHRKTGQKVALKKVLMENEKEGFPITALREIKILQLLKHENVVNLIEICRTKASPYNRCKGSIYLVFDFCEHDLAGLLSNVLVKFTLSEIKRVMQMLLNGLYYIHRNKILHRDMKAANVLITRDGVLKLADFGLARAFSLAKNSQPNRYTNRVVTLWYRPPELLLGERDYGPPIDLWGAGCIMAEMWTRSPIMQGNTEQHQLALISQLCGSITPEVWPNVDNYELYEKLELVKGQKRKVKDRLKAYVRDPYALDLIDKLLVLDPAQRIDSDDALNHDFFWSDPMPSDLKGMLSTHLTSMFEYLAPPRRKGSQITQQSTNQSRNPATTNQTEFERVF
T7 sequence (O60563 whole entry partner): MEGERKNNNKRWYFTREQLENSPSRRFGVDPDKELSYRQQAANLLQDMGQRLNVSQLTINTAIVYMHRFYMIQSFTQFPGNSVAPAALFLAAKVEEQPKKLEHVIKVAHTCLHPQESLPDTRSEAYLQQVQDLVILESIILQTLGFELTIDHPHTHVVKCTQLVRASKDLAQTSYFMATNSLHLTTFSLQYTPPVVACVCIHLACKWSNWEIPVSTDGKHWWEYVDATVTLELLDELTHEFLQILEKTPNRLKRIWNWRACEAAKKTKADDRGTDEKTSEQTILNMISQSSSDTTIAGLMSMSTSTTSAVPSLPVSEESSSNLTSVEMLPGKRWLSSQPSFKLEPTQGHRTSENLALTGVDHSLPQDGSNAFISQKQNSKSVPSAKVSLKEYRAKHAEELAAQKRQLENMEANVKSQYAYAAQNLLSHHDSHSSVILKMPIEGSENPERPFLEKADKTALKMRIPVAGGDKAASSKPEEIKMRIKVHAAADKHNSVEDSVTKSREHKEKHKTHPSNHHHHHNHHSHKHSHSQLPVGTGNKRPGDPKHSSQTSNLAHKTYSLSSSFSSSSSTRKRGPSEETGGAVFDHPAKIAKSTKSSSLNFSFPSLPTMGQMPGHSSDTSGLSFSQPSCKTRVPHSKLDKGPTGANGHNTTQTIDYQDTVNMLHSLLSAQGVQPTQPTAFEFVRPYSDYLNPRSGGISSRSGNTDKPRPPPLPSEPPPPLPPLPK
Protocol: as §1

[8] = target: T8, ROS (Homo sapiens, UniProt P08922)
T8 construct: purchased Reaction Biology Europe GmbH (formerly ProQinase)
T8 sequence (P08922 28-2347): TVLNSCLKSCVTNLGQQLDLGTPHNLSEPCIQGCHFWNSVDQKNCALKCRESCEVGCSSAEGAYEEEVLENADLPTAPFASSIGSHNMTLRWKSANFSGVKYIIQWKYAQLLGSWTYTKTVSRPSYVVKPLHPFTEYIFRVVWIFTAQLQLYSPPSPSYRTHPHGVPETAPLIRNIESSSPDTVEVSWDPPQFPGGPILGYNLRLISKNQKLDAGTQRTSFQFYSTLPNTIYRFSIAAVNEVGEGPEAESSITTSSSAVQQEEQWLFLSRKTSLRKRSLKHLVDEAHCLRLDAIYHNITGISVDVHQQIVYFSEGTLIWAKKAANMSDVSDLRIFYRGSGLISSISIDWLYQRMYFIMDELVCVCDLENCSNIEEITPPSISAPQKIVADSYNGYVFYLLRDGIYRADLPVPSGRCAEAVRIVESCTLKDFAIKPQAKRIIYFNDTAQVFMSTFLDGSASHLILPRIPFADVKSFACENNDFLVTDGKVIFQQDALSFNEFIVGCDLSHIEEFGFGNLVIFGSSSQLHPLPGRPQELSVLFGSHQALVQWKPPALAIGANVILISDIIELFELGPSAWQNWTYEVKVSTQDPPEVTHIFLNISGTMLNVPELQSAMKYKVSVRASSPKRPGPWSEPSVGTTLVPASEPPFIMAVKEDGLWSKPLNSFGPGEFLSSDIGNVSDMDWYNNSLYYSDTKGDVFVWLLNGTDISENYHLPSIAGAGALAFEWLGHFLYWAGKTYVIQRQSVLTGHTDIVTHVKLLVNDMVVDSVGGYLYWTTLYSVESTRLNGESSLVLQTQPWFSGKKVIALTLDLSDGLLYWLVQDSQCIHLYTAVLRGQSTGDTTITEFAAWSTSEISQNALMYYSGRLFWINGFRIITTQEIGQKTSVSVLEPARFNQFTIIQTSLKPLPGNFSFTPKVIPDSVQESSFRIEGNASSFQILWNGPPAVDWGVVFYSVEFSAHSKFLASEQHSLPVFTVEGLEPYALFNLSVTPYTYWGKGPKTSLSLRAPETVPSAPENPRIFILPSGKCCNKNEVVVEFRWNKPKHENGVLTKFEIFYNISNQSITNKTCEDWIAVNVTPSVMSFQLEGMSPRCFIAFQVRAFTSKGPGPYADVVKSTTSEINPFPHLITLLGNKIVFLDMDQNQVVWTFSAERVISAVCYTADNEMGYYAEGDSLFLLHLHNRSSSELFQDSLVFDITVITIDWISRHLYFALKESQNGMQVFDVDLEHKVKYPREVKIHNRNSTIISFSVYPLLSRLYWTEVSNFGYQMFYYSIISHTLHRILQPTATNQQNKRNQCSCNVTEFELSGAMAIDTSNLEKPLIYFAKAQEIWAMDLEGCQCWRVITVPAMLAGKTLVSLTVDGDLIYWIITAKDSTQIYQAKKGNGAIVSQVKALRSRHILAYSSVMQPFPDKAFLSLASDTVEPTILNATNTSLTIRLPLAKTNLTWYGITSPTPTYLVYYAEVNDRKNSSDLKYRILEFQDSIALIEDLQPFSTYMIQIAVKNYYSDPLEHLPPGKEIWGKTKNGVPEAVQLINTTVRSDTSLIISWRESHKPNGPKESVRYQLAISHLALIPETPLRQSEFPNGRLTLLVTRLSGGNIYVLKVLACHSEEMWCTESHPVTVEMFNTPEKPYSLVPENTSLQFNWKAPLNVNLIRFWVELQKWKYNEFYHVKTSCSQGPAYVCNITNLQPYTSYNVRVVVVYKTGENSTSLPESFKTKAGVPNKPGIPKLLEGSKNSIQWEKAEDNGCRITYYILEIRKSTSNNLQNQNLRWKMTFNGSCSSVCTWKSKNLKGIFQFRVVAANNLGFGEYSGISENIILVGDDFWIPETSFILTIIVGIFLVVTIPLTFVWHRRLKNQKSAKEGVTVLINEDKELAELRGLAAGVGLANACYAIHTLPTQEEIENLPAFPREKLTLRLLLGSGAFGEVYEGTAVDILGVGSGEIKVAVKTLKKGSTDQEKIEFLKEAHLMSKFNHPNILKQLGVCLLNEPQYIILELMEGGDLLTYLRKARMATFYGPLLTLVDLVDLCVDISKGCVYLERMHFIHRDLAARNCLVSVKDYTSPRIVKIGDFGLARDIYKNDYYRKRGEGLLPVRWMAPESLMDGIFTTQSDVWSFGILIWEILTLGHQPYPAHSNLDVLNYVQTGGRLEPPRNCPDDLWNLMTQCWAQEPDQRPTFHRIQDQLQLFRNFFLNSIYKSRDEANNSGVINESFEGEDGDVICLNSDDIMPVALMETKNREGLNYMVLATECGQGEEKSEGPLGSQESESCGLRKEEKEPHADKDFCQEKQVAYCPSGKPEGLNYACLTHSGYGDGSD
Protocol: as §1

[9] = target: T9, MET (Homo sapiens, UniProt P08581)
T9 construct: purchased Reaction Biology Europe GmbH (formerly ProQinase)
T9 sequence (P08581 25-1390): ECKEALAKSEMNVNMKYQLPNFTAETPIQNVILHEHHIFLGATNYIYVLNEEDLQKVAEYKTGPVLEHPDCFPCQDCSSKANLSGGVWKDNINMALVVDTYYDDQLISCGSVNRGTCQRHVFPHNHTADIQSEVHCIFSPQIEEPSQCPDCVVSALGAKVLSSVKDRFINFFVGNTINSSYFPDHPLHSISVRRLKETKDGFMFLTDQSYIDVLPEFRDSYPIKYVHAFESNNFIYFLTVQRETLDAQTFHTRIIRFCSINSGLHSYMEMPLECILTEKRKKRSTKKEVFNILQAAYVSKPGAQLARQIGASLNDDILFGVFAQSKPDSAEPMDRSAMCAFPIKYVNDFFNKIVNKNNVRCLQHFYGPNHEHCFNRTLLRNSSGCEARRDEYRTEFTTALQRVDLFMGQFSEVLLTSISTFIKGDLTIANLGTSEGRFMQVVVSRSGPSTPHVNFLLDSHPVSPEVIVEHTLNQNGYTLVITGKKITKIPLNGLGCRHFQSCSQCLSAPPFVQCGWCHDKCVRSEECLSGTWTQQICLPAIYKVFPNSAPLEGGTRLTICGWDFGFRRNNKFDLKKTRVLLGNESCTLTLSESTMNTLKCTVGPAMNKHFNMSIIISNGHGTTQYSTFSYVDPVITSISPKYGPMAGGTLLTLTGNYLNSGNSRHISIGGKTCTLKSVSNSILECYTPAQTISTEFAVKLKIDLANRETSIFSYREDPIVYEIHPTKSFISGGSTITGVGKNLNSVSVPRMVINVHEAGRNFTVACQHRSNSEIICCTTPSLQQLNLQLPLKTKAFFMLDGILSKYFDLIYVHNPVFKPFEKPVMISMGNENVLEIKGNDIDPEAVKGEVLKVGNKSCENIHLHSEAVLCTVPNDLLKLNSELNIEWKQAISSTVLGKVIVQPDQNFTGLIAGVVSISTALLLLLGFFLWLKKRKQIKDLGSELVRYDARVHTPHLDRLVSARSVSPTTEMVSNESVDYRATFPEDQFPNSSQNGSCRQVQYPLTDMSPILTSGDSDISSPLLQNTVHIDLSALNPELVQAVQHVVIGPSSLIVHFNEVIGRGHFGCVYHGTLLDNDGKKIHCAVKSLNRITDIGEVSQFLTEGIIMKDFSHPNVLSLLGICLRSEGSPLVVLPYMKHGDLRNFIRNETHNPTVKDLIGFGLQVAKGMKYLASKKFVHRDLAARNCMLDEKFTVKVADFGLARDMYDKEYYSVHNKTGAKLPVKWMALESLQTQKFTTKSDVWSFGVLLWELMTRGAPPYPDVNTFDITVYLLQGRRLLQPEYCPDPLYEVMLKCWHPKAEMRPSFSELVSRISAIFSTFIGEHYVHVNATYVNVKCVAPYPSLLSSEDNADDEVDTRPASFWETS
Protocol: as §1

SMILES | residual kinase activity ([1]; 0.3 µM) | residual kinase activity ([2]; 0.3 µM) | residual kinase activity ([3]; 0.3 µM) | residual kinase activity ([4]; 0.3 µM) | residual kinase activity ([5]; 0.3 µM) | residual kinase activity ([6]; 0.3 µM) | residual kinase activity ([7]; 0.3 µM) | residual kinase activity ([8]; 0.3 µM) | residual kinase activity ([9]; 0.3 µM) | other results
COc1ccnc2[nH]cc(-c3cc(N)nc(N)c3)c12 [meriolin 16] | 89 % of control | 62 % of control | 105 % of control | 68 % of control | 96 % of control | 77 % of control | 2 % of control | 81 % of control | 106 % of control | residual kinase activity ([1]; 0.03 µM): 98 % of control; residual kinase activity ([2]; 0.03 µM): 93 % of control; residual kinase activity ([3]; 0.03 µM): 98 % of control; residual kinase activity ([4]; 0.03 µM): 118 % of control; residual kinase activity ([5]; 0.03 µM): 77 % of control; residual kinase activity ([6]; 0.03 µM): 100 % of control; residual kinase activity ([7]; 0.03 µM): 13 % of control; residual kinase activity ([8]; 0.03 µM): 92 % of control; residual kinase activity ([9]; 0.03 µM): 110 % of control
c1ccc(CNc2cc(-c3c[nH]c4ncccc34)ccn2)cc1 [meriolin 36] | 119 % of control | 16 % of control | 101 % of control | 85 % of control | 67 % of control | 19 % of control | 1 % of control | 26 % of control | 99 % of control | residual kinase activity ([1]; 3 µM): 106 % of control; residual kinase activity ([2]; 3 µM): 3 % of control; residual kinase activity ([3]; 3 µM): 65 % of control; residual kinase activity ([4]; 3 µM): 46 % of control; residual kinase activity ([5]; 3 µM): 67 % of control; residual kinase activity ([6]; 3 µM): 4 % of control; residual kinase activity ([7]; 3 µM): 0 % of control; residual kinase activity ([8]; 3 µM): 5 % of control; residual kinase activity ([9]; 3 µM): 48 % of control
